Where “and” joins values, the source holds several entries; their conditions need not be identical. Equal values may be shown once. Read-outs that look alike come from different tables or passages of the source.
Columns and labels:
delta opioid receptor [1] = target: T1, delta opioid receptor (Rattus norvegicus, UniProt P33533); assay: Rat brain delta opioid receptor binding assay
T1 construct: the forebrains were homogenized in Tris buffer in a Teflon®-glass homogenizer; from tissue; host or cells: forebrain of male Wistar rats, particulate membrane preparation
Procedure: (§1) Procedure: Male, Wistar rats (150-250 g, VAF, Charles River, Kingston, N.Y.) were killed by CO2, and their brains were removed and placed immediately in ice cold Tris HCl buffer (50 mM, pH 7.4). The forebrains were separated from the remainder of the brain by a coronal transection, beginning dorsally at the colliculi and passing ventrally through the midbrain-pontine junction. After dissection, the forebrains were homogenized in Tris buffer in a Teflon®-glass homogenizer. The homogenate was diluted to a concentration of 1 g of forebrain tissue per 80 mL Tris and centrifuged at 39,000×g for 10 min. The pellet was resuspended in the same volume of Tris buffer containing 5 mM MgCl2 with several brief pulses from a Polytron homogenizer. This particulate preparation was used for the delta opioid binding assays. Following incubation with the delta selective peptide ligand ˜4 nM [^3H]DPDPE or 0.25 nM [^3H]naltrindole at 25° C. for 2.5 h in a 96-well plate with total volume of […], the plate contents were filtered through Wallac filtermat B sheets on a Tomtec 96-well harvester. […] To each sample area 2×50 μL of Betaplate Scint scintillation fluid (LKB) was added and the radioactivity was quantified on a LKB (Wallac) 1205 BetaPlate liquid scintillation counter.
(§2) Analysis: The data from the scintillation counter was used to calculate either the % inhibition compared to control binding (when only a single concentration of test compound was evaluated) or a Ki value (when a range of concentrations was tested). Percent inhibition was calculated as: [(total dpm−test compound dpm)/(total dpm-nonspecific dpm)]*100. Kd and Ki values were calculated using GraphPad PRISM data analysis program.

mu opioid receptor = target: T2, mu opioid receptor (Rattus norvegicus, UniProt P33535); assay: Rat brain mu opioid receptor binding assay
T2 construct: the forebrains were homogenized in Tris buffer in a Teflon®-glass homogenizer; from tissue; host or cells: forebrain of male Wistar rats, particulate membrane preparation
Procedure: as §1, with “mu” for “delta”, “ligand, ˜0.8” for “ligand ˜4”, “[^3H]DAMGO,” for “[^3H]DPDPE or 0.25 nM [^3H]naltrindole”, “total assay” for “total”, “2×40” for “2×50”, “quantifed” for “quantified”
as §2

[2] = target: T3, mu opioid receptor (CHO-hMOR cell membranes) (Homo sapiens, UniProt P35372); assay: [35S]GTPγS binding assay in CHO-hMOR cell membranes (mu opioid functional assay); type: biochemical
T3 construct: host or cells: CHO cells (membranes purchased)

delta opioid receptor [3] = target: T4, delta opioid receptor (Mus musculus, UniProt P32300); assay: NG108-15, 24-well delta opioid receptor binding assay; settings: NG108-15 cell membranes, ~0.2 nM [3H]Naltrindole; read-out: δ-binding NG108 cell membrane Ki
T4 construct: NG108-15 cell membranes were purchased from Applied Cell Sciences (Rockville, Md.); host or cells: NG108-15 cell membranes (purchased)
Procedure: Methods: NG108-15 cell membranes were purchased from Applied Cell Sciences (Rockville, Md.). 5 mg/mL of membrane protein was suspended in 10 mM TRIS-HCl pH 7.2, 2 mM EDTA, 10% sucrose. With several brief pulses from a Polytron homogenizer, each vial was homogenized in 5 mls of 50 mM Tris Buffer, pH 7.4. The homogenate was diluted in 50 mM Tris Buffer containing 5 mM MgCl2 to 330 ug/ml in the working solution for a final concentration of 133 ug/well. This particulate preparation was used for the 24-well delta opioid binding assay.
Following incubation with the delta selective ligand ˜0.2 nM [^3H]Naltrindole at 25° C. for 2.5 h in a 24-well plate with total volume of 1 mL, the plate contents were filtered through a UniFilter24, GF/B. This plate was presoaked in 0.3% PEI and filtered through a 24-well Harvester. The UniFilter24 was rinsed three times with 2 mL of 10 mM HEPES (pH 7.4), and dried in an oven at 37° C. for 1.5 hours. To each well, was added 150 μL of Scint0 (PerkinElmer, Cat#6013611). The plates were then read on a TopCount.
Analysis: The data from the scintillation counter were used to calculate either the % inhibition compared to control binding (when only a single concentration of test compound was evaluated) or a Ki value (when a range of concentrations was tested). Non-specific binding (N.S.—1 mM Naloxone) is used as the negative control, while the Total Binding (T.B.—Membrane and ligand only) is used as the positive control. If one concentration is screened, the % inhibition is calculated as (cpms of total binding minus cpms of compound) divided by (cpms of T.B. minus cpms of N.S). The triplicate % Inhibitions are averaged and reported. If multiple concentrations are generated, the values are analyzed using the one-site binding non-linear regression program in Prism to determine Ki values. The bottom and top values are globally shared. The triplicate Kis are then averaged and reported.

delta opioid receptor [4] = target: T4, delta opioid receptor; assay: [35S]GTPγS binding assay in NG108-15 cell membranes (delta opioid functional assay); type: biochemical; settings: for GTPγS δ-Rel Efficacy @200 nM: 200 nM compound, relative to calculated max of SNC80 dose response
Procedure: Methods: NG108-15 cell membranes were purchased from Applied Cell Sciences (Rockville, Md.). 5 mg/mL of membrane protein was suspended in 10 mM TRIS-HCl pH 7.2, 2 mM EDTA, 10% sucrose. Membranes were maintained at 4-8° C. A 1 mL volume of membranes was added into 10 mL cold binding assay buffer. The assay buffer contained 50 mM Tris, pH 7.6, 5 mM MgCl2, 100 mM NaCl, 1 mM DTT and 1 mM EGTA. The membrane suspension was homogenized twice with a Polytron, and centrifuged at 3000 rpm for 10 min. The supernatant was then centrifuged at 18,000 rpm for 20 min. Ten mL assay buffer was added into the pellet containing tube. The pellet and buffer were mixed with a Polytron.
Incubation procedure: The pellet membranes (75 μg/mL) were preincubated with SPA (10 mg/mL) at 25° C. for 45 min in the assay buffer. […] 200 nM of receptor agonists was used to stimulate [^35S]-GTPγS binding. The basal binding was tested in the absence of agonists and non-specific binding was tested in the presence of 10 μM unlabeled GTPγS.
Data % of Basal=(stimulated−non specific)*100/(basal−non specific). Relative Efficacy of a compound at 200 nM=(% of Basal of test compound at 200 nM)/(Calculated Max of SNC80 dose response. Curve in prism).

delta opioid receptor [5] = target: T4, delta opioid receptor; assay: as above; type: biochemical; settings: for inhibition at 10 µM: read-out: GTPγS δ-opioid receptor % Inh @10 μM, 10 μM
[6] = read-out: GTPγS δ-opioid receptor EC50
[7] = rat forebrain membranes, 0.25 nM [3H]naltrindole, read-out: δ-binding (Naltrindole ligand) Ki
[8] = rat forebrain membranes, ~0.8 nM [3H]DAMGO, read-out: μ-binding Ki

T1 sequence (P33533 whole entry): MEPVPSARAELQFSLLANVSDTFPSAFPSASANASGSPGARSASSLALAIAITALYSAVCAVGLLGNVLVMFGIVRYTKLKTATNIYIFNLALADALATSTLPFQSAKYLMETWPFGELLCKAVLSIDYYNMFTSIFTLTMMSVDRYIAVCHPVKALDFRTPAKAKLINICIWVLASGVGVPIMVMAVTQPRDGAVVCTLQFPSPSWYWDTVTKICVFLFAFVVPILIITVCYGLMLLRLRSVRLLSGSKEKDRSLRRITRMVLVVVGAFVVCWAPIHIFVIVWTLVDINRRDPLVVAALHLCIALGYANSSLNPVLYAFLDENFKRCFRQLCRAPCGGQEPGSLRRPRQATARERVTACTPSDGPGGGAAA
T4 sequence (P32300 whole entry): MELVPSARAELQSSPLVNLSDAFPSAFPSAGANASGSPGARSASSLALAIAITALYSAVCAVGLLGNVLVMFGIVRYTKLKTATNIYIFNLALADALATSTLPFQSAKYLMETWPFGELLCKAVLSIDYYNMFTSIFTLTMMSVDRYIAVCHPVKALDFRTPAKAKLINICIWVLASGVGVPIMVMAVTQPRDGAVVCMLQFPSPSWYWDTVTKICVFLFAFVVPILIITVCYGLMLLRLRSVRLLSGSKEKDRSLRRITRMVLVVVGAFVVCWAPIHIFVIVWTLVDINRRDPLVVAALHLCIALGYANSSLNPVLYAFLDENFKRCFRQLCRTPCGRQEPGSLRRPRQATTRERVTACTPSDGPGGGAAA
T2 sequence (P33535 whole entry): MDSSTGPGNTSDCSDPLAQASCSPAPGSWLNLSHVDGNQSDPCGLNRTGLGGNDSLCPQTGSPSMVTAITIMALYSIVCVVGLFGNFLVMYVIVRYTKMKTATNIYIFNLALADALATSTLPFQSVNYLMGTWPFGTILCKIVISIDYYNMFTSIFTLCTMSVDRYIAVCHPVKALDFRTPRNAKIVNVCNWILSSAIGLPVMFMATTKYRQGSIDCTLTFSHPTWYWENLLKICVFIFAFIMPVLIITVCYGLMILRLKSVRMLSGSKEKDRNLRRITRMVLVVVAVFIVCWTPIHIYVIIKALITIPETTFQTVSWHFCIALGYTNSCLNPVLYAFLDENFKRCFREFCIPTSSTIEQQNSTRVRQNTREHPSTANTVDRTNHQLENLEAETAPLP
T3 sequence (P35372 whole entry): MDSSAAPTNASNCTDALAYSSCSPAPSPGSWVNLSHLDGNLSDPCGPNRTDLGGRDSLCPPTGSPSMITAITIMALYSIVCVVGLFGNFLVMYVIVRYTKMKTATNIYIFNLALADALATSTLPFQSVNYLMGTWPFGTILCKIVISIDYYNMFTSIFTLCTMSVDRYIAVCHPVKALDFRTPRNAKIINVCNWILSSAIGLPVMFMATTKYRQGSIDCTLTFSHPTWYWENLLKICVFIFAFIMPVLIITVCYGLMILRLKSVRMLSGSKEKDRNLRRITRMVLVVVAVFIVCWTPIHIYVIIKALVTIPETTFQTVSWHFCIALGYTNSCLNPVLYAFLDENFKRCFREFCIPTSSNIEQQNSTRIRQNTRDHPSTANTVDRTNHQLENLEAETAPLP

| Compound | Ki (delta opioid receptor [1]) | Ki (mu opioid receptor) | Ki (delta opioid receptor [3]) | GTPγS δ-opioid receptor Rel Efficacy (delta opioid receptor [4]) | EC50 (delta opioid receptor [4]; [6]) | inhibition at 10 µM (delta opioid receptor [5]) | Ki (delta opioid receptor [1]; [7]) | Ki (mu opioid receptor; [8]) | GTPγS δ-opioid receptor % Inh @10 μM (delta opioid receptor [5]) | further results |
| --- | --- | --- | --- | --- | --- | --- | --- | --- | --- | --- |
| COc1ccc(Oc2ncc(NC[C@@H]3CCCN3)c(Oc3ccc(OC)cc3)n2)cc1 [Cpd 1, [2,4-Bis-(4-methoxyphenoxy)pyrimidin-5-yl]pyrrolidin-2-(S)-ylmethylamine] | 0.0059 µM | 3.88 µM |  |  |  |  |  |  |  | EC50 ([2]; CHO-hMOR cell membranes, read-out: GTPγS μ-opioid receptor EC50): 84.3 µM; inhibition at 10 µM ([2]; read-out: GTPγS μ-opioid receptor % Inh @10 μM): 19.5% |
| COc1ccc(Oc2nc(Oc3cccnc3)ncc2NC[C@@H]2CCCN2)cc1 [Cpd 45] |  |  | 0.00145 µM | 1.178 | 0.734 µM |  |  |  |  |  |
| CCN(CC)C(=O)c1ccc(Oc2ncc(NC[C@@H]3CCCN3)c(Oc3ccc(OC)cc3)n2)cc1 [Cpd 5, N,N-Diethyl-4-{4-(4-methoxy-phenoxy)-5-[(pyrrolidin-2-(S)-ylmethyl)-amino]pyrimidin-2-yloxy}-benzamide] | 0.0183 µM | 0.0182 µM |  |  | 2.62 µM | 26.4% |  |  |  |  |
| COc1ccc(Oc2nc(Sc3cccc(F)c3)ncc2NC[C@@H]2CCCN2)cc1 [Cpd 47] |  |  | 0.000739 µM | 1.079 | 0.193 µM |  |  |  |  | GTPγS δ-Rel Efficacy @200 nM (delta opioid receptor [4]): 0.481 |
| COc1ccc(Oc2nc(C#Cc3ccccc3)ncc2NC[C@@H]2CCCN2)cc1 [Cpd 4, [4-(4-Methoxy-phenoxy)-2-phenylethynyl-pyrimidin-5-yl]-pyrrolidin-2-(S)-ylmethyl-amine] |  |  |  |  |  | 8.94% | 0.0163 µM | 4.42 µM |  | EC50 (delta opioid receptor [4]; GTPγS δ-opioid receptor EC50): 1.03 µM |
| COc1ccc(Oc2ncc(NC3CCCNC3)c(Oc3ccc(OC)cc3)n2)cc1 (stereo not drawn) [Cpd 2] | 0.00761 µM | 2.44 µM |  |  | 0.828 µM | 8.16% |  |  |  |  |
| COc1ccc(Oc2ncc(NCC3CCCN3)c(Oc3ccc(OC)cc3)n2)cc1 (stereo not drawn) [Cpd 7] |  |  |  |  | 0.221 µM |  | 0.0684 µM | 2.85 µM | 20.645% |  |
| N-{2-[2,4-Bis-(4-methoxy-phenoxy)-pyrimidin-5-ylamino]ethyl}-guanidine [Cpd 44] |  |  |  |  | 1.11 µM |  |  |  | 15.636% |  |
| [2-(3-Fluoro-phenoxy)-4-(4-methoxy-phenoxy)-pyrimidin-5-yl]-pyrrolidin-2-(S)-ylmethyl-amine [Cpd 46] |  |  | 0.000288 µM | 0.983 | 0.028 µM |  |  |  |  | GTPγS δ-Rel Efficacy @200 nM (delta opioid receptor [4]): 0.770 |
| COc1ccc(Oc2ncc(NC3CCCC(N)C3)c(Oc3ccc(OC)cc3)n2)cc1 (stereo not drawn) [Cpd 3] |  |  |  | 1.106 |  | 12.8% | 0.0161 µM | 1.67 µM | 19.733% | EC50 (delta opioid receptor [4]; GTPγS δ-opioid receptor EC50): 0.559 µM and 0.092 µM and 0.206 µM |

From US8394809B2, “Phenoxy-substituted pyrimidines as opioid receptor modulators” (priority 2009, dated 2013)
